Biological target: T1, Hypoxanthine-guanine phosphoribosyltransferase (Homo sapiens, UniProt P00492)
T1 sequence (P00492 whole entry): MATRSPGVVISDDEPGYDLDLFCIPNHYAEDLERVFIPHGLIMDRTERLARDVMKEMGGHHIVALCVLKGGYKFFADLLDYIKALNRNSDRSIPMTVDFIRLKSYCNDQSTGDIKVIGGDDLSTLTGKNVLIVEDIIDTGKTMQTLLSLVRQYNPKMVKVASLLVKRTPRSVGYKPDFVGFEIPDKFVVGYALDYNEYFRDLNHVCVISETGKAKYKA
Experiment: Kinetic inhibition constant of compound with human Hypoxanthine Phosphoribosyltransferase (HPRT)

Ki: 16 µM
SMILES: O=C(Nc1cc2c3ccccc3ccc2c2ccccc12)C(Cl)Cl
